From patent US7279542B2, “Polymeric particles and fragrance delivery systems” (Firmenich SA, priority 2003, dated 2007) come the findings set out here.

Series [1] is described as follows: LogP of fragrance raw materials (partition coefficient between octanol and water). Type of series: physicochemical.
A short description of series [2]: Swelling of micro-capsules with single fragrance raw materials (mass fraction in swollen micro-capsule). Type of series: physicochemical. The settings on record: micro-capsules of Example 4 swelled with excess raw material, 1 to 3 days. The text has this:
The capsules were allowed to swallow with an excess of the model-perfume (see Example 1) during 1 to 3 days. The swelled micro-particles were then separated from the remaining perfume by filtration and washed with ethanol. This experiment was repeated for various raw materials having various chemical functionalities or various polarities (i.e. LogP, P being the partition coefficient between octanol and water).

Setting [3] is: P = partition coefficient between octanol and water, read-out: LogP.

Read-outs that look alike come from different tables or passages of the source.

A word on the logP: it is the decadic logarithm of the partition coefficient of the neutral form, usually between octanol and water. `CC(=O)OCc1ccccc1` [Benzyl acetate]: the logP in series [1] (setting [3]) was determined as 1.57. The “Fragrance mass fraction in the final swollen micro-capsule weight [%]” value (shortened to “Fragrance mass fraction … [%]”) in series [2] is 49.8%.
For the compound `CC(C)=CCC/C(C)=C/CO` [Geraniol], the logP in series [1] (setting [3]) came out at 3.59. Further, the “Fragrance mass fraction … [%]” value in series [2] came to 36.2%.
Compound `O=C1CCCCCCCCC/C=C/CCCO1` [Habanolide ®, pentadecenolide] displayed a log partition coefficient (logP) in series [1] of 5.37. In addition, the “Fragrance mass fraction … [%]” value in series [2] turned out to be 50.3%.
Take `CCCCCCOC(=O)c1ccccc1O` [Hexyl salicylate]: the log partition coefficient (logP) in series [1] (setting [3]) was 4.91. Further, in series [2], the “Fragrance mass fraction … [%]” value came to 50.7%.
